Like-named read-outs stand apart in the source and are kept apart here.
Tests used:
HER3 = target: T1, HER3 (Homo sapiens, UniProt P21860); assay: HER3/ERBB3 degradation (western blot, OVCAR8 cells); format: cell-based
T1 construct: endogenous in cells; host or cells: OVCAR8
Protocol: FIG. 10 illustrates a Western blot of Compound 102-related degradation of ERBB3.
In various embodiments, treatment with PROTAC was performed in one of two ways: 1) For experiments involving >16 h exposure to compound, a 1000× stock was added to cells followed by gentle agitation; 2) For shorter treatments, a 2× stock was added to an equal volume of cells to ensure uniform drug exposure. For immortalized cell lines, 2×10^6 cells per treatment condition were collected and washed once with ice cold PBS (IX), followed by lysis in buffer containing 20 mM Tris [pH 8.0], 0.25% sodium deoxycholate, 1% Triton X-100, supplemented with protease (Roche) and phosphatase inhibitors (10 mM NaF, 2 mM Na3VO4, 10 mM β-glycerophosphate, 10 mM Na-pyrophosphate). Lysates were spun at 15,000×g for 10 min at 4° C. and supernatant was quantified for total protein content using the Pierce BCA Protein Assay (Thermo Fisher Scientific). 30 μg of protein was loaded onto 12% SDS-PAGE gels or 4-15% Mini-PROTEAN TGX precast gradient gels (Bio-Rad), transferred onto nitrocellulose membranes, and probed with the specified primary antibodies overnight with rocking at 4° C. in 1×TBS-T containing 5% non-fat milk.
(§1) Either anti-rabbit or anti-mouse HRP-conjugated secondary antibodies (Pierce) were incubated with the membranes for 1 h at room temperature at 1:10,000 dilutions in 5% non-fat milk in IX TBS-T. Imaging was performed using the ECL Prime chemiluminescent western blot detection reagents (Amersham) followed by visualization with the Bio-Rad ChemiDoc imaging instrument. All western blots were subsequently processed and quantified using the accompanying Bio-Rad Image Lab software. Primary antibodies used were: Anti-actin antibody (Cat. #MA 1-744) purchased from ThermoFisher Scientific; anti-BTK (Cat. #8547), anti-pBTK (Y223, Cat. #5082), anti-ITK (Cat. #2380), anti-GAPDH (Cat. #5179), anti-IKZF1 (Cat. #9034), and anti-IKZF3 (Cat. #15103) antibodies purchased from Cell Signaling Technology. All antibodies were used at 1:1,000 dilutions in 5% non-fat milk in 1×TBS-Tween (TBS-T) or Blotto blocker (Thermo Scientific) unless otherwise noted in supplier specifications.

BTK = BTK (Homo sapiens, UniProt Q06187); assay: BTK degradation in NAMALWA cells (immunoblot); format: cell-based; parameters: host or cells: NAMALWA; details: NAMALWA cells; for DC50: concentration needed to degrade 50% of the total pool of BTK; for Max: maximal BTK degradation
Protocol: NAMALWA and Jurkat cell lines were purchased from ATCC and cultured according to supplier guidelines at 37° C. […] Wild-type and C481S BTK XLA cell lines were cultured as previously described (39). Written, informed consent was obtained prior to the collection of cells from CLL patients using the IWCLL2008 criteria. Isolation of mononuclear cells from peripheral blood was prepared using density gradient centrifugation. B-cells were then negatively selected ([…] Technologies). […] They were maintained at 37° C. in 5% CO2.
Lysates were spun at 15,000×g for 10 min at 4° C. and supernatant was quantified for total protein content using the Pierce BCA Protein Assay (Thermo Fisher Scientific).
as §1, with “Primary antibodies used were: Anti-actin antibody (Cat. #MA 1-744) purchased from ThermoFisher Scientific; anti-BTK (Cat. #8547), anti-pBTK (Y223, Cat. #5082), anti-ITK (Cat. #2380), anti-GAPDH (Cat. #5179), anti-IKZF1 (Cat. #9034), and anti-IKZF3 (Cat. #15103) antibodies purchased from Cell Signaling Technology.” left out

Sequence of BTK (Q06187 whole entry): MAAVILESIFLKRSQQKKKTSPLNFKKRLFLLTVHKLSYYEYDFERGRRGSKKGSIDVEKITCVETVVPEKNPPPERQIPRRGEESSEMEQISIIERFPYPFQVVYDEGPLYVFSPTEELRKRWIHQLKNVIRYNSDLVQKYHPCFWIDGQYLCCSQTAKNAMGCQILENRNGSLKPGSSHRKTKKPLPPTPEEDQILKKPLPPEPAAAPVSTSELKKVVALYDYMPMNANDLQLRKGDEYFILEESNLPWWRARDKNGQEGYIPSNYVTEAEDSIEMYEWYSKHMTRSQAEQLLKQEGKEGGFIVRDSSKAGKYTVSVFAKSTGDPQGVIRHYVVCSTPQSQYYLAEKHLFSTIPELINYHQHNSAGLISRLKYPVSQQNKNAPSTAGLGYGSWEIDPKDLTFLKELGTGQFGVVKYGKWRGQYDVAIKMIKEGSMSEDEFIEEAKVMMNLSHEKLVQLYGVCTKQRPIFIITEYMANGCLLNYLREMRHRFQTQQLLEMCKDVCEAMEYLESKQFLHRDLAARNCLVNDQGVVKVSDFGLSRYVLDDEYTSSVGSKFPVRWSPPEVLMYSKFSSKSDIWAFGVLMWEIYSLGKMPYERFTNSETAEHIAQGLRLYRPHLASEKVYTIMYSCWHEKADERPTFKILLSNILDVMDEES
T1 sequence (P21860 20-1342): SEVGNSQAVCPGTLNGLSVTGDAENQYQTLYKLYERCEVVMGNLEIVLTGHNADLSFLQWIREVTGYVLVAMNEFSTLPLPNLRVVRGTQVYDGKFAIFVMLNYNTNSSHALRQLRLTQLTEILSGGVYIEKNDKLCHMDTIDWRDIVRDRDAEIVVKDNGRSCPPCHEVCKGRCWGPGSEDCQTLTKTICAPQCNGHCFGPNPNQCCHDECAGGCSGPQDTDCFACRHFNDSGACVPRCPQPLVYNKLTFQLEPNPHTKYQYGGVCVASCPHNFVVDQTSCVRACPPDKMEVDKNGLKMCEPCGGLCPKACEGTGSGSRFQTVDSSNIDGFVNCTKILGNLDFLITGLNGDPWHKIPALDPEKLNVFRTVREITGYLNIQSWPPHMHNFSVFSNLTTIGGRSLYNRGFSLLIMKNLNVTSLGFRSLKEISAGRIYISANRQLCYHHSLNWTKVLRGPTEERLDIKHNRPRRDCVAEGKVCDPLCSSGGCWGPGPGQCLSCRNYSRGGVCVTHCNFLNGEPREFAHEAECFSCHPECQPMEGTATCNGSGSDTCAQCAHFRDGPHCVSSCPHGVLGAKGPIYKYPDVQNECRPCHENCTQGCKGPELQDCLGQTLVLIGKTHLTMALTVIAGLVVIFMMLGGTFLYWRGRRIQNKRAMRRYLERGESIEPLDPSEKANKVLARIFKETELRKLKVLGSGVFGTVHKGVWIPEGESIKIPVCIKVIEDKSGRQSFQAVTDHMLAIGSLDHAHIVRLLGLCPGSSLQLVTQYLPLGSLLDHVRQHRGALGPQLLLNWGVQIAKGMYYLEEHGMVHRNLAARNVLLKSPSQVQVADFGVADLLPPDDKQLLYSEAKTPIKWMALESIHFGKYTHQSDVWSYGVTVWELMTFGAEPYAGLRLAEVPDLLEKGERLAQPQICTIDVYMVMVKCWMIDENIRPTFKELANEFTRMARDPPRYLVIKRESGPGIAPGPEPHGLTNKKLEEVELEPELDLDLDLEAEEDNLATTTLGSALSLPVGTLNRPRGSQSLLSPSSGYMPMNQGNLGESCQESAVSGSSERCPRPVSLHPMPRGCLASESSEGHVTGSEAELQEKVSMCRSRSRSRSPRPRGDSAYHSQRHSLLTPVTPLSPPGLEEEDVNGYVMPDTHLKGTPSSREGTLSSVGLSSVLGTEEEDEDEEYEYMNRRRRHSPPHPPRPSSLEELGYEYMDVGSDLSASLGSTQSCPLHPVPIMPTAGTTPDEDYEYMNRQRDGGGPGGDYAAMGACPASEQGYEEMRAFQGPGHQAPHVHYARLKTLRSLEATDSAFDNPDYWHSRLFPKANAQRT

HER3 Degradation (HER3) | DC50 (BTK; read-out: DC50) [nM] | Max (BTK; at 1.0 μM) [%] | Max (BTK; at 2.5 μM) [%] | DC50 (BTK) | Compound | degradation of BTK at 1.0 μM (BTK; 1.0 μM)
No | 98.5 | 98 | – | – | Nc1ncnc2c1c(-c1ccc(Oc3ccccc3)cc1)nn2C1CCN(CCCCCCOCCCCCCOCC(=O)Nc2cccc3c2C(=O)N(C2CCC(=O)NC2=O)C3=O)CC1 (stereo not drawn) [Compound 107, 2-(6-(6-(4-(4-amino-3-(4-phenoxyphenyl)-1H-pyrazolo[3,4-d]pyrimidin-1-yl)piperidin-1-yl)hexyloxy)hexyloxy)-N-(2-(2,6-dioxopiperidin-3-yl)-1,3-dioxoisoindolin-4-yl)acetamide] | –
No | 278 | – | 73 | – | Cc1ncsc1-c1ccc(CNC(=O)[C@@H]2C[C@@H](O)CN2C(=O)[C@@H](NC(=O)COCCOCCOCCOCCN2CCC(n3nc(-c4ccc(Oc5ccccc5)cc4)c4c(N)ncnc43)CC2)C(C)(C)C)cc1 [Compound 109, (2S,4R)-1-((S)-17-(4-(4-amino-3-(4-phenoxyphenyl)-1H-pyrazolo[3,4-d]pyrimidin-1-yl)piperidin-1-yl)-2-tert-butyl-4-oxo-6,9,12,15-tetraoxa-3-azaheptadecane)-4-hydroxy-N-(4-(4-methylthiazol-5-yl)benzyl)pyrrolidine-2-carboxamide] | –
No | – | – | – | No Degradation | Cc1ncsc1-c1ccc(CNC(=O)[C@@H]2C[C@@H](O)CN2C(=O)[C@@H](NC(=O)COCCOCCOCCCCCCN2CCC(n3nc(-c4ccc(Oc5ccccc5)cc4)c4c(N)ncnc43)CC2)C(C)(C)C)cc1 [Compound 110, (2S,4R)-1-((S)-19-(4-(4-amino-3-(4-phenoxyphenyl)-1H-pyrazolo[3,4-d]pyrimidin-1-yl)piperidin-1-yl)-2,2-dimethyl-5-oxo-7,10,13-trioxa-4-azanonadecanecarbonyl)-4-hydroxy-N-(4-(4-methylthiazol-5-yl)benzyl)pyrrolidine-2-carboxamide] | –
No | 144 | 45 | – | – | Cc1ncsc1-c1ccc(CNC(=O)[C@@H]2C[C@@H](O)CN2C(=O)[C@@H](NC(=O)COCCCCCOCCCCCCN2CCC(n3nc(-c4ccc(Oc5ccccc5)cc4)c4c(N)ncnc43)CC2)C(C)(C)C)cc1 [Compound 111, (2S,4R)-1-((S)-2-(2-(5-(6-(4-(4-amino-3-(4-phenoxyphenyl)-1H-pyrazolo[3,4-d]pyrimidin-1-yl)piperidin-1-yl)hexyloxy)pentyloxy)acetamido)-3,3-dimethylbutanoyl)-4-hydroxy-N-(4-(4-methylthiazol-5-yl)benzyl)pyrrolidine-2-carboxamide] | –
No | – | – | – | No Degradation | Cc1ncsc1-c1ccc(CNC(=O)[C@@H]2C[C@@H](O)CN2C(=O)[C@@H](NC(=O)CCCCCOCCOCCCCCCN2CCC(n3nc(-c4ccc(Oc5ccccc5)cc4)c4c(N)ncnc43)CC2)C(C)(C)C)cc1 [Compound 112, (2S,4R)-1-((S)-2-(6-(2-(6-(4-(4-amino-3-(4-phenoxyphenyl)-1H-pyrazolo[3,4-d]pyrimidin-1-yl)piperidin-1-yl)hexyloxy)ethoxy)hexanamido)-3,3-dimethylbutanoyl)-4-hydroxy-N-(4-(4-methylthiazol-5-yl)benzyl)pyrrolidine-2-carboxamide] | –
No | 124 | 60 | – | – | Cc1ncsc1-c1ccc(CNC(=O)[C@@H]2C[C@@H](O)CN2C(=O)[C@@H](NC(=O)COCCOCCOCCOCCCCN2CCC(n3nc(-c4ccc(Oc5ccccc5)cc4)c4c(N)ncnc43)CC2)C(C)(C)C)cc1 [Compound 113, (2S,4R)-1-((S)-19-(4-(4-amino-3-(4-phenoxyphenyl)-1H-pyrazolo[3,4-d]pyrimidin-1-yl)piperidin-1-yl)-2-tert-butyl-4-oxo-6,9,12,15-tetraoxa-3-azanonadecane)-4-hydroxy-N-(4-(4-methylthiazol-5-yl)benzyl)pyrrolidine-2-carboxamide] | –
No | 248 | 30 | – | – | Cc1ncsc1-c1ccc(CNC(=O)[C@@H]2C[C@@H](O)CN2C(=O)[C@@H](NC(=O)COCCOCCOCCOCCN2CCN(C3CCC(n4nc(-c5ccc(Oc6ccccc6)cc5)c5c(N)ncnc54)CC3)CC2)C(C)(C)C)cc1 (stereo partly drawn) [Compound 114, (2S,4R)-1-((S)-17-(4-(4-(4-amino-3-(4-phenoxyphenyl)-1H-pyrazolo[3,4-d]pyrimidin-1-yl)cyclohexyl)piperazin-1-yl)-2-tert-butyl-4-oxo-6,9,12,15-tetraoxa-3-azaheptadecane)-4-hydroxy-N-(4-(4-methylthiazol-5-yl)benzyl)pyrrolidine-2-carboxamide] | –
No | 231 | 32 | – | – | Cc1ncsc1-c1ccc(CNC(=O)[C@@H]2C[C@@H](O)CN2C(=O)[C@@H](NC(=O)COCCOCCOCCOCCCCCCN2CCC(n3nc(-c4ccc(Oc5ccccc5)cc4)c4c(N)ncnc43)CC2)C(C)(C)C)cc1 [Compound 115, (2S,4R)-1-((S)-22-(4-(4-amino-3-(4-phenoxyphenyl)-1H-pyrazolo[3,4-d]pyrimidin-1-yl)piperidin-1-yl)-2,2-dimethyl-5-oxo-7,10,13,16-tetraoxa-4-azadocosanecarbonyl)-4-hydroxy-N-(4-(4-methylthiazol-5-yl)benzyl)pyrrolidine-2-carboxamide] | –
No | – | – | – | No Degradation | Cc1ncsc1-c1ccc(CNC(=O)[C@@H]2C[C@@H](O)CN2C(=O)[C@@H](NC(=O)CCCCCOCCCCCOCCCCCCN2CCC(n3nc(-c4ccc(Oc5ccccc5)cc4)c4c(N)ncnc43)CC2)C(C)(C)C)cc1 [Compound 117, (2S,4R)-1-((S)-2-(6-(5-(6-(4-(4-amino-3-(4-phenoxyphenyl)-1H-pyrazolo[3,4-d]pyrimidin-1-yl)piperidin-1-yl)hexyloxy)pentyloxy)hexanamido)-3,3-dimethylbutanoyl)-4-hydroxy-N-(4-(4-methylthiazol-5-yl)benzyl)pyrrolidine-2-carboxamide] | –

Compound | HER3 Degradation (HER3) | DC50 (BTK; read-out: DC50) [nM] | Max (BTK; at 1.0 μM) [%] | Max (BTK; at 2.5 μM) [%] | DC50 (BTK) | degradation of BTK at 1.0 μM (BTK; 1.0 μM)
Nc1ncnc2c1c(-c1ccc(Oc3ccccc3)cc1)nn2C1CCN(CCCCOCCCCOCC(=O)Nc2cccc3c2C(=O)N(C2CCC(=O)NC2=O)C3=O)CC1 (stereo not drawn) [Compound 106, 2-[4-[4-[4-[4-amino-3-(4-phenoxyphenyl)pyrazolo[3,4-d]pyrimidin-1-yl]-1-piperidyl]butoxy]butoxy]-N-[2-(2,6-dioxo-3-piperidyl)-1,3-dioxo-isoindolin-4-yl]acetamide] | No | 90.1 | 93 | – | – | nearly complete degradation
Cc1ncsc1-c1ccc(CNC(=O)[C@@H]2C[C@@H](O)CN2C(=O)[C@@H](NC(=O)CCCCCOCCOCCOCCCCCCN2CCC(n3nc(-c4ccc(Oc5ccccc5)cc4)c4c(N)ncnc43)CC2)C(C)(C)C)cc1 [Compound 116, (2S,4R)-1-((S)-23-(4-(4-amino-3-(4-phenoxyphenyl)-1H-pyrazolo[3,4-d]pyrimidin-1-yl)piperidin-1-yl)-2,2-dimethyl-5-oxo-11,14,17-trioxa-4-azatricosanecarbonyl)-4-hydroxy-N-(4-(4-methylthiazol-5-yl)benzyl)pyrrolidine-2-carboxamide] | No | – | – | – | No Degradation | –

— patent US11028088B2, “Modulators of BTK proteolysis and methods of use” (Yale University, priority 2018, dated 2021)
